Assay results as given in BindingDB's records for doi:10.1021/jm00046a011 (Glaxo Research and Development, 1994).

Target: Squalene synthase (Candida albicans)
Assay: Compound was tested for in vitro inhibitory activity against Candida albicans 2005E microsomal SQS

| SMILES | IC50 [nM] |
| --- | --- |
| CC(CC[C@]12O[C@H](C(=O)O)[C@@](O)(C(=O)O)[C@](C(=O)O)(O1)[C@H](O)[C@H]2O)C[C@@H](C)Cc1ccccc1 (stereo partly drawn) [(1S,3S,4S,5R,6R,7R)-1-((R)-3,5-Dimethyl-6-phenyl-hexyl)-4,6,7-trihydroxy-2,8-dioxa-bicyclo[3.2.1]octane-3,4,5-tricarboxylic acid] | 200 |
| CC[C@H](C)C[C@H](C)CCC(=O)O[C@@H]1[C@@H](O)[C@@]2(CCC(C)[C@H](OC(C)=O)[C@@H](C)Cc3ccccc3)O[C@H](C(=O)O)[C@@](O)(C(=O)O)[C@]1(C(=O)O)O2 (stereo partly drawn) [(1S,3S,4S,5R,6R,7R)-1-((4S,5S)-4-Acetoxy-3,5-dimethyl-6-phenyl-hexyl)-6-((4R,6S)-4,6-dimethyl-octanoyloxy)-4,7-dihydroxy-2,8-dioxa-bicyclo[3.2.1]octane-3,4,5-tricarboxylic acid] | 7 |
